The molecules below were run against T1, human LPAR1 (Homo sapiens, UniProt Q92633) (assay: Arrestin assay (Arrestin Reporter EDG2-bla U2OS), inhibition of LPA-stimulated signal). Details: TangoEDG2-bla U2OS cells expressing human LPAR1; 0.25 μM LPA; read-out: Arrestin Reporter EDG2-bla U2OS Human Merged IC50.
T1 construct: host or cells: TangoEDG2-bla U2OS cells
T1 sequence (Q92633 whole entry): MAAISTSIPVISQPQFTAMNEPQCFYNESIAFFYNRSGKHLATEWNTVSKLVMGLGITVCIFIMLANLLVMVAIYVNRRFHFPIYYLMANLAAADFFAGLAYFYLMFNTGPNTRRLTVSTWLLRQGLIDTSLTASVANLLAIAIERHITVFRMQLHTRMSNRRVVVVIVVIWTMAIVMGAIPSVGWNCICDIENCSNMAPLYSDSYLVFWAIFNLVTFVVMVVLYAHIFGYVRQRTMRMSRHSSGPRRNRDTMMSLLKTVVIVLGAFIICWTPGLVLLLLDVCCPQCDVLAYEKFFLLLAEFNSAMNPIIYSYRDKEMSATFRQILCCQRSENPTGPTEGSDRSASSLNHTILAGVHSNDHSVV
Type: cell-based
How it was run: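 TangoEDG2-bla U2OS cells (1×10^4/well, plated 18-20 h) were preincubated 1 h at 37 °C with compound (12-point, 3-fold, 10 μM to 0.00006 μM), then stimulated 3 h with 0.25 μM LPA final. LiveBLAzer FRET B/G 460/530 nm emission ratio gave % inhibition; IC50 from 4-parameter variable-slope fit.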
For `CC(C)c1c(F)cnn1C1(C(=O)Nc2ccc(Cl)cc2OC(F)F)CCN(C[C@H](CO)C(=O)O)CC1` [Compound 213, (2R)-2-[[4-[[4-chloro-2-(difluoromethoxy)phenyl]carbamoyl]-4-(4-fluoro-5-isopropyl-pyrazol-1-yl)-1-piperidyl]methyl]-3-hydroxy-propanoic acid], the IC50 was 22.2 nM. With `CC(C)c1c(F)cnn1C1(C(=O)Nc2ccc(Cl)cc2OC(F)F)CCN([C@H]2CO[C@@H](C(=O)O)C2)CC1` [Compound 214, (2R,4R)-4-[4-[[4-chloro-2-(difluoromethoxy)phenyl]carbamoyl]-4-(4-fluoro-5-isopropyl-pyrazol-1-yl)-1-piperidyl]tetrahydrofuran-2-carboxylic acid] the IC50 was 75.8 nM. In the case of `CC(C)c1ccnn1C1(C(=O)Nc2ccc(Cl)cc2OC(F)F)CCN(C[C@@H](C(=O)O)C2COCCOC2)CC1` [Compound 215, (2S)-3-[4-[[4-chloro-2-(difluoromethoxy)phenyl]carbamoyl]-4-(5-isopropylpyrazol-1-yl)-1-piperidyl]-2-(1,4-dioxepan-6-yl)propanoic acid], the IC50 is reported as 18.5 nM. `CC(C)c1ccnn1C1(C(=O)Nc2ccc(Cl)cc2OC(F)F)CCN(C[C@H](C(=O)O)C2COCCOC2)CC1` [Compound 216, (2R)-3-[4-[[4-chloro-2-(difluoromethoxy)phenyl]carbamoyl]-4-(5-isopropylpyrazol-1-yl)-1-piperidyl]-2-(1,4-dioxepan-6-yl)propanoic acid] was tested, and the IC50 was 28.4 nM. `CC(C)c1ccnn1C1(C(=O)Nc2ccc(Cl)cc2OC(F)F)CCN([C@H]2C[C@@](C(=O)O)(C(F)F)C2)CC1` [Compound 220, (1s,3s)-3-[4-[[4-chloro-2-(difluoromethoxy)phenyl]carbamoyl]-4-(5-isopropylpyrazol-1-yl)-1-piperidyl]-1-(difluoromethyl) cyclobutanccarboxylic acid] was tested, and the IC50 was 71.5 nM. Work on `CC(C)c1ccnn1C1(C(=O)Nc2ccc(Cl)cc2OC(F)F)CCN([C@H]2C[C@](C(=O)O)(C(F)F)C2)CC1` [Compound 221] yielded an IC50 of 27.7 nM. Molecule `CC(C)c1ccnn1C1(C(=O)Nc2ccc(Cl)cc2OC(F)F)CCN(C[C@@H](C(=O)O)[C@@H](C)O)CC1` [Compound 222, (2R,3R)-2-[[4-[[4-chloro-2-(difluoromethoxy)phenyl]carbamoyl]-4-(5-isopropylpyrazol-1-yl)-1-piperidyl]methyl]-3-hydroxy-butanoic acid] has an IC50 of 47.9 nM. `CC(C)c1ccnn1C1(C(=O)Nc2ccc(Cl)cc2OC(F)F)CCN(C[C@@H](C(=O)O)[C@H](C)O)CC1` [Compound 223, (2R,3S)-2-[[4-[[4-chloro-2-(difluoromethoxy)phenyl]carbamoyl]-4-(5-isopropylpyrazol-1-yl)-1-piperidyl]methyl]-3-hydroxy-butanoic acid] was tested, and the IC50 was 59.5 nM. In the case of `COc1cnn([C@H](CN2CCC(C(=O)Nc3ccc(Cl)cc3OC(F)F)(n3nccc3C(C)C)CC2)C(=O)O)c1` [Compound 224, (2R)-3-[4-[[4-chloro-2-(difluoromethoxy)phenyl]carbamoyl]-4-(5-isopropylpyrazol-1-yl)-1-piperidyl]-2-(4-methoxypyrazol-1-yl)propanoic acid], the IC50 is reported as 31.1 nM. `COc1cnn([C@@H](CN2CCC(C(=O)Nc3ccc(Cl)cc3OC(F)F)(n3nccc3C(C)C)CC2)C(=O)O)c1` [Compound 225, (2S)-3-[4-[[4-chloro-2-(difluoromethoxy)phenyl]carbamoyl]-4-(5-isopropylpyrazol-1-yl)-1-piperidyl]-2-(4-methoxypyrazol-1-yl)propanoic acid] was tested, and the IC50 was 30.9 nM. In the case of `CO[C@H]1C[C@@H]([C@H](CN2CCC(C(=O)Nc3ccc(Cl)cc3OC(F)F)(n3nccc3C(C)C)CC2)C(=O)O)C1` [Compound 226], the IC50 is reported as 39.9 nM. For `CO[C@H]1C[C@@H]([C@@H](CN2CCC(C(=O)Nc3ccc(Cl)cc3OC(F)F)(n3nccc3C(C)C)CC2)C(=O)O)C1` [Compound 227, (2S)-3-[4-[[4-chloro-2-(difluoromethoxy)phenyl]carbamoyl]-4-(5-isopropylpyrazol-1-yl)-1-piperidyl]-2-((1s,3R)-3-methoxycyclobutyl) propanoic acid], the IC50 was 38.3 nM. `CCOC[C@H](CN1CCC(C(=O)Nc2ccc(Cl)cc2OC(F)F)(n2nccc2C(C)C)CC1)C(=O)O` [Compound 228, (2S)-2-[[4-[[4-chloro-2-(difluoromethoxy)phenyl]carbamoyl]-4-(5-isopropylpyrazol-1-yl)-1-piperidyl]methyl]-3-ethoxy-propanoic acid] gave an IC50 of 16.6 nM. Molecule `CO[C@H]1C[C@H]([C@H](CN2CCC(C(=O)Nc3ccc(Cl)cc3OC(F)F)(n3nccc3C(C)C)CC2)C(=O)O)C1` [Compound 229, (2R)-3-[4-[[4-chloro-2-(difluoromethoxy)phenyl]carbamoyl]-4-(5-isopropylpyrazol-1-yl)-1-piperidyl]-2-((1r,3R)-3-methoxycyclobutyl) propanoic acid] has an IC50 of 29.2 nM. In the case of `CO[C@H]1C[C@H]([C@@H](CN2CCC(C(=O)Nc3ccc(Cl)cc3OC(F)F)(n3nccc3C(C)C)CC2)C(=O)O)C1` [Compound 230, (2S)-3-[4-[[4-chloro-2-(difluoromethoxy)phenyl]carbamoyl]-4-(5-isopropylpyrazol-1-yl)-1-piperidyl]-2-((1r,3S)-3-methoxycyclobutyl) propanoic acid], the IC50 is reported as 25.5 nM. In the case of `CCOC[C@@H](CN1CCC(C(=O)Nc2ccc(Cl)cc2OC(F)F)(n2nccc2C(C)C)CC1)C(=O)O` [Compound 231, (2R)-2-[[4-[[4-chloro-2-(difluoromethoxy)phenyl]carbamoyl]-4-(5-isopropylpyrazol-1-yl)-1-piperidyl]methyl]-3-ethoxy-propanoic acid], the IC50 is reported as 14.2 nM. `CC(C)c1ccnn1C1(C(=O)Nc2ccc(Cl)cc2OC(F)F)CCN(CC(COCC(F)(F)F)C(=O)O)CC1` (centres unmarked) [Compound 232, 2-[[4-[[4-chloro-2-(difluoromethoxy)phenyl]carbamoyl]-4-(5-isopropylpyrazol-1-yl)-1-piperidyl]methyl]-3-(2.2,2-trifluoroethoxy)propanoic acid] showed an IC50 of 8.37 nM. In the case of `CC(C)c1ccnn1C1(C(=O)Nc2ccc(Cl)cc2OC(F)F)CCN(C[C@@H](COCC(F)(F)F)C(=O)O)CC1` [Compound 233, (2S)-2-[[4-[[4-chloro-2-(difluoromethoxy)phenyl]carbamoyl]-4-(5-isopropylpyrazol-1-yl)-1-piperidyl]methyl]-3-(2,2,2-trifluoroethoxy)propanoic acid], the IC50 is reported as 8.94 nM. `CC(C)c1ccnn1C1(C(=O)Nc2ccc(Cl)cc2OC(F)F)CCN(C[C@H](COCC(F)(F)F)C(=O)O)CC1` [Compound 234, (2R)-2-[[4-[[4-chloro-2-(difluoromethoxy)phenyl]carbamoyl]-4-(5-isopropylpyrazol-1-yl)-1-piperidyl]methyl]-3-(2,2,2-trifluoroethoxy)propanoic acid] gave an IC50 of 9.54 nM. `CC(C)c1ccnn1C1(C(=O)Nc2ccc(Cl)cc2OC(F)F)CCN(C[C@@](C)(O)C(=O)O)CC1` [Compound 235, (2R)-3-[4-[[4-chloro-2-(difluoromethoxy)phenyl]carbamoyl]-4-(5-isopropylpyrazol-1-yl)-1-piperidyl]-2-hydroxy-2-methyl-propanoic acid] was tested, and the IC50 was 20.9 nM. With `CC(C)c1ccnn1C1(C(=O)Nc2ccc(Cl)cc2OC(F)F)CCN(C[C@](C)(O)C(=O)O)CC1` [Compound 236, (2S)-3-[4-[[4-chloro-2-(difluoromethoxy)phenyl]carbamoyl]-4-(5-isopropylpyrazol-1-yl)-1-piperidyl]-2-hydroxy-2-methyl-propanoic acid] the IC50 was 64.8 nM. Work on `CC(C)c1ccnn1C1(C(=O)Nc2ccc(Cl)cc2OC(F)F)CCN(CC(CN2CCOC(F)(F)C2)C(=O)O)CC1` (centres unmarked) [Compound 237, 2-[[4-[[4-chloro-2-(difluoromethoxy)phenyl]carbamoyl]-4-(5-isopropylpyrazol-1-yl)-1-piperidyl]methyl]-3-(2,2-difluoromorpholin-4-yl)propanoic acid] yielded an IC50 of 16.5 nM. `CC(C)c1ccnn1C1(C(=O)Nc2ccc(Cl)cc2OC(F)F)CCN(C[C@@H](CN2CCOCC2)C(=O)O)CC1` [Compound 238, (2S)-2-[[4-[[4-chloro-2-(difluoromethoxy)phenyl]carbamoyl]-4-(5-isopropylpyrazol-1-yl)-1-piperidyl]methyl]-3-morpholino-propanoic acic] showed an IC50 of 126 nM. Work on `CC(C)c1ccnn1C1(C(=O)Nc2ccc(Cl)cc2OC(F)F)CCN(C[C@H](CN2CCOCC2)C(=O)O)CC1` [Compound 239, (2R)-2-[[4-[[4-chloro-2-(difluoromethoxy)phenyl]carbamoyl]-4-(5-isopropylpyrazol-1-yl)-1-piperidyl]methyl]-3-morpholino-propanoic acid] yielded an IC50 of 62.3 nM. `CC(C)c1c(F)cnn1C1(C(=O)Nc2ccc(Cl)cc2OC(F)F)CCN(CC(C)(C)C(=O)O)CC1` [Compound 240, 3-[4-[[4-chloro-2-(difluoromethoxy)phenyl]carbamoyl]-4-(4-fluoro-5-isopropyl-pyrazol-1-yl)-1-piperidyl]-2,2-dimethyl-propanoic acid] gave an IC50 of 23.8 nM. For “(2S)-3-[4-[[4-chloro-2- (difluoromethoxy)phenyl] carbamoyl]-4-1(65)-6- methyl-5,6-dihydro-4H- cyclopenta[c]pyrazol-1- yl]-1-piperidyl]-2- tetrahydropyran-4-yl- propanoic acid [Compound 174]”, the IC50 was 50.2 nM.

From patent publication US20260102383A1, “LPAR1 Inhibitors” (AbbVie Inc., priority 2024, published 2026)
